# Test results as given in patent US20250108066A1, “TRINUCLEOTIDE CAP ANALOGS AND METHODS OF USE THEREOF” (TriLink BioTechnologies, LLC, priority 2022, published 2025).
# Tested on: CD-1 mice
# Assay: In vivo luciferase expression in mice injected with LNP:mRNA (Fluc mRNA capped with cap analog), whole-body bioluminescence imaging
# Details: female CD-1 mice, LNP:mRNA 1 mg/kg single tail-vein bolus; for in vivo luciferase expression as compared to m7GpppA2′OMepG (Control): integrated flux from 3-48 hours, FIG. 2; for in vivo luciferase expression (translation) as compared to the same compound lacking the 3′OMe group on the m7G: pairwise comparison 3′OMe vs 3′OH on m7G, FIG. 4 / FIG. 2
# Protocol: Female CD-1 mice of 8-9 weeks old were randomized into groups of five animals based on body weight at the beginning of the study (Charles River Laboratories, Discovery Research Services North Carolina). Lipid nanoparticle formulations including mRNA (capped using a cap analog recited in Table 1, N1-methylpseudouridine-5′-Triphosphate (N1-me-PsU) modified firefly luciferase (Fluc) mRNA) (LNP:mRNA) test articles were diluted in PBS to achieve 1 mg/kg delivery in a single bolus by tail-vein injection. The body weight of each mouse was measured once a day for the duration of the study and two blood draws were taken for serum analysis by Mouse Cytokine/Chemokine 26-Plex ProcartaPlex Panel 1 by Luminex platform (Thermo Fisher Scientific; Waltham, MA). Luciferase activity was measured by whole-body bioluminescence imaging on IVIS Spectrum CT system by Perkin Elmer (Greenville, SC) at six time points post mRNA injection (3 hours, 6 hours, 9 hours, 12 hours, 24 hours, and 48 hours hours post-injection). D-luciferin was delivered by intraperitoneal injection 10 minutes prior to each imaging session (150 mg/kg total). The measured luciferase expression results are shown in FIG. 2, showing the integrated flux from 3-48 hours. […] Luminescence intensity scale is on the left.
structure (smiles),measurement,value
"C[n+]1cn([C@@H]2O[C@H](COP(=O)(O)OP(=O)([O-])OP(=O)(O)OC[C@]34COC(C3OP(=O)(O)OC[C@H]3O[C@@H](n5cnc6c(=O)[nH]c(N)nc65)C(O)C3O)[C@H](n3cnc5c(N)ncnc53)O4)C(O)C2O)c2nc(N)[nH]c(=O)c21 (stereo in doubt) [Compound 1, ^m7GpppA2′,4′-LNApG]",in vivo luciferase expression as compared to m7GpppA2′OMepG (Control),increased in vivo luciferase expression
"COC1C(O)[C@H](n2c[n+](C)c3c(=O)[nH]c(N)nc32)O[C@@H]1COP(=O)(O)OP(=O)([O-])OP(=O)(O)OC[C@]12COC(C1OP(=O)(O)OC[C@H]1O[C@@H](n3cnc4c(=O)[nH]c(N)nc43)C(O)C1O)[C@H](n1cnc3c(N)ncnc31)O2 (stereo in doubt) [Compound 2, ^m7G3′OMepppA2′,4′-LNApG]",in vivo luciferase expression as compared to m7GpppA2′OMepG (Control),increased in vivo luciferase expression
same,in vivo luciferase expression (translation) as compared to the same compound lacking the 3′OMe group on the m7G,increased luciferase expression in vivo
"COC1C(OP(=O)(O)OC[C@H]2O[C@@H](n3cnc4c(=O)[nH]c(N)nc43)C(O)C2O)[C@@H](COP(=O)(O)OP(=O)([O-])OP(=O)(O)OC[C@H]2O[C@@H](n3c[n+](C)c4c(=O)[nH]c(N)nc43)C(O)C2OC)O[C@H]1n1cnc2c(N)nc(N)nc21 (stereo in doubt) [Compound 8, ^m7G3′OMeppp(diaminopurine)2′OMepG]",in vivo luciferase expression as compared to m7GpppA2′OMepG (Control),increased in vivo luciferase expression
same,in vivo luciferase expression (translation) as compared to the same compound lacking the 3′OMe group on the m7G,increased luciferase expression in vivo
"COC1C(OP(=O)(O)OC[C@H]2O[C@@H](n3cnc4c(=O)[nH]c(N)nc43)C(O)C2O)[C@@H](COP(=O)(O)OP(=O)([O-])OP(=O)(O)OC[C@H]2O[C@@H](n3c[n+](C)c4c(=O)[nH]c(N)nc43)C(OC)C2OC)O[C@H]1n1cnc2c(N)ncnc21 (stereo in doubt) [Compound 25, ^m7G2′OMe3′OMepppA2′OMepG]",in vivo luciferase expression (translation) as compared to the same compound lacking the 3′OMe group on the m7G,increased luciferase expression in vivo
"COC1[C@@H](OP(=O)(O)OC[C@H]2O[C@@H](n3cnc4c(=O)[nH]c(N)nc43)C(O)[C@H]2O)[C@@H](/C=C/P(=O)(O)OP(=O)([O-])OP(=O)(O)OC[C@H]2O[C@@H](n3c[n+](C)c4c(=O)[nH]c(N)nc43)C(O)[C@H]2OC)O[C@H]1n1cnc2c(N)ncnc21 (stereo partly drawn) [Compound 5, ^m7G3′-OMepppA2′OMe-5′vinylpG]",in vivo luciferase expression (translation) as compared to the same compound lacking the 3′OMe group on the m7G,increased luciferase expression in vivo
"COC1C(OP(=O)(O)OC[C@H]2O[C@@H](n3cnc4c(=O)[nH]c(N)nc43)C(O)C2O)[C@@H](COP(=O)(O)OP(=O)([O-])OP(=O)(O)OC[C@H]2O[C@@H](n3c[n+](C)c4c(=O)[nH]c(N)nc43)C(O)C2OC)O[C@H]1n1cnc2c(N)ncnc21 (stereo partly drawn) [Compound 29, ^m7G3′OmepppA2′OMepG]",in vivo luciferase expression as compared to m7GpppA2′OMepG (Control),increased in vivo luciferase expression
same,in vivo luciferase expression (translation) as compared to the same compound lacking the 3′OMe group on the m7G,increased luciferase expression in vivo
"CNc1ncnc2c1ncn2[C@@H]1O[C@H](COP(=O)(O)OP(=O)([O-])OP(=O)(O)OC[C@H]2O[C@@H](n3c[n+](C)c4c(=O)[nH]c(N)nc43)C(O)C2OC)C(OP(=O)(O)OC[C@H]2O[C@@H](n3cnc4c(=O)[nH]c(N)nc43)C(O)C2O)C1OC (stereo partly drawn) [Compound 30, ^m7G3′OMeppp^m6A2′OMepG]",in vivo luciferase expression as compared to m7GpppA2′OMepG (Control),increased in vivo luciferase expression
same,in vivo luciferase expression (translation) as compared to the same compound lacking the 3′OMe group on the m7G,increased luciferase expression in vivo
"COC1C(OP(=O)(O)OC[C@H]2O[C@@H](n3cnc4c(=O)[nH]c(N)nc43)C(O)C2O)[C@@H](COP(=O)(O)OP(=O)([O-])OP(=O)(O)OC[C@]23COC(C2O)[C@H](n2c[n+](C)c4c(=O)[nH]c(N)nc42)O3)O[C@H]1n1cnc2c(N)ncnc21 (stereo partly drawn) [Compound 32, ^m7G2′4′LNApppA2′OMepG]",in vivo luciferase expression as compared to m7GpppA2′OMepG (Control),increased in vivo luciferase expression
